Measurements from paper PMC3393770 (Chembiochem, 2012).
Read-outs that look alike come from different tables or passages of the source.

Biological target: T1, Saccharomyces cerevisiae 20S proteasome, β5 subunit (chymotrypsin-like activity) (Saccharomyces cerevisiae, UniProt P23724+P30656)
T1 sequence (P30656 76-287): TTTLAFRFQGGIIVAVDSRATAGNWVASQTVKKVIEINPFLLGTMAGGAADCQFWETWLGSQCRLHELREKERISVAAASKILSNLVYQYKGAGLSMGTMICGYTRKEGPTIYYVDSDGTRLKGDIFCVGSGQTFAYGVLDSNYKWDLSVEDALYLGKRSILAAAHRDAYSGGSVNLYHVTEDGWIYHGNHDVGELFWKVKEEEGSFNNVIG
T1 sequence (P23724 20-241): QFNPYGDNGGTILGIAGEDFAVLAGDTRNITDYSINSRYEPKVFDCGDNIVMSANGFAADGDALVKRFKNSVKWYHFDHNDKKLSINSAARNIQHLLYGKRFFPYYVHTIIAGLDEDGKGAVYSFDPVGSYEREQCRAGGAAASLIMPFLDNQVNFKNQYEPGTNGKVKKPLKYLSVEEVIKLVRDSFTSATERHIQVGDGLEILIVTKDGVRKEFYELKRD
Assay: […] proteasome β[…]
Type: biochemical

[1] = read-out: Proteasome Inhibition(IC50), chymotrypsin-like site, 0.5 μg/mL proteasome, covalent (α,β-epoxyketone, Thr1)

C[C@@]12OC(=O)[C@]1([C@@H](O)[C@@H]1C=CCCC1)NC(=O)[C@@H]2CCCl [compound 11, salinosporamide A]
IC50: 1.4 ± 0.2 nM

CCCCCC(=O)N[C@H](C(=O)N[C@@H](CC[S+](C)[O-])C(=O)N[C@@H](CC(C)C)C(=O)[C@@]1(C)CO1)C(C)C (mixture of isomers) [compound 1, carmaphycin A]
IC50 [1]: 2.5 ± 0.3 nM

CCCCCC(=O)N[C@H](C(=O)N[C@@H](CCS(C)(=O)=O)C(=O)N[C@@H](CC(C)C)C(=O)[C@@]1(C)CO1)C(C)C [compound 2, carmaphycin B]
IC50 [1]: 2.6 ± 0.9 nM
